# Assay results taken from patent US12161722B2, “Bifunctional heterocyclic compound having BTK degradation function via ubiquitin proteasome pathway, and use thereof” (KOREA RESEARCH INSTITUTE OF CHEMICAL TECHNOLOGY, priority 2021, dated 2024).
# Target: T1, WT BTK protein (Homo sapiens, UniProt Q06187)
# T1 construct: measured for intracellular BTK protein levels by Western blotting; endogenous in cells; host or cells: TMD-8 or RAMOS cells
# Test: BTK protein degradation assay (Western blotting), WT BTK
# Type: cell-based
# Conditions: concentration range accounting for 50% degradation of WT BTK protein, TMD-8 or RAMOS cells, 24 hours
# Outline: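 TMD-8 cells (1×10^6 cells/mL) treated 24 h with compound serial dilutions, then lysed in RIPA. Equal protein loads analysed by Western blot for BTK with GAPDH/β-actin as loading controls; activity binned by concentration giving 50% WT BTK degradation.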
# T1 sequence (Q06187 whole entry): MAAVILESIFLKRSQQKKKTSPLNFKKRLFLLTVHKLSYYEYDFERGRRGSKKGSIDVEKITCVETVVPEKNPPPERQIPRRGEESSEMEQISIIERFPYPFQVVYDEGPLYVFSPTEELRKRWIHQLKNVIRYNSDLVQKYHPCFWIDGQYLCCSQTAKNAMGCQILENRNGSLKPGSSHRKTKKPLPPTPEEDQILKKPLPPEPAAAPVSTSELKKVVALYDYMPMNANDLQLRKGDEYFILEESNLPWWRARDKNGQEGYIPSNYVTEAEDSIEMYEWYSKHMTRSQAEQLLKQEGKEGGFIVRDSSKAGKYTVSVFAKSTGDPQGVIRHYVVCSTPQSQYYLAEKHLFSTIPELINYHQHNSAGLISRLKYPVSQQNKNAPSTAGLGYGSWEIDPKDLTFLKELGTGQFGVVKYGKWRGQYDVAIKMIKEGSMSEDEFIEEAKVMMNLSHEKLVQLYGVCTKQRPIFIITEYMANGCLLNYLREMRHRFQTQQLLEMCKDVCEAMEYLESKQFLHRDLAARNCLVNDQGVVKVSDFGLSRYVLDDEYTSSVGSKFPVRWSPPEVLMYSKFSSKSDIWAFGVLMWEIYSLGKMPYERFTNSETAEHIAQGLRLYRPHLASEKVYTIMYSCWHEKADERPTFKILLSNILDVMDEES
row,Compound,DC50
1,"Cc1cccc(C)c1Nc1nn(C)c2nc(Nc3ccc4c(c3)CN(CC3CCN(c5ccc6c(c5)C(=O)N(C5CCC(=O)NC5=O)C6=O)CC3)C4)ncc12 (stereo not shown) [Compound 73, 5-(4-((5-((3-((2,6-Dimethylphenyl)amino)-1-methyl-1H-pyrazolo[3,4-d]pyrimidin-6-yl)amino)isoindolin-2-yl)methyl)piperidin-1-yl)-2-(2,6-dioxopiperidin-3-yl)isoindoline-1,3-dione]",10 to 1000 nM
2,"Cc1cccc(C)c1Nc1nn(C)c2nc(Nc3ccc4c(c3)CN(C(=O)COC3CCN(c5ccc6c(c5)C(=O)N(C5CCC(=O)NC5=O)C6=O)CC3)CC4)ncc12 (stereo not shown) [Compound 127, 5-(4-(2-(7-((3-((2,6-Dimethylphenyl)amino)-1-methyl-1H-pyrazolo[3,4-d]pyrimidin-6-yl)amino)-3,4-dihydroisoquinolin-2 (1H)-yl)-2-oxoethoxy)piperidin-1-yl)-2-(2,6-dioxopiperidin-3-yl)isoindoline-1,3-dione]",0.1 to 10 nM
3,"Cc1cccc(C)c1Nc1nn(C)c2nc(Nc3ccc4c(c3)CN(CC3CCN(C(=O)CNc5ccc6c(c5)C(=O)N(C5CCC(=O)NC5=O)C6=O)CC3)CC4)ncc12 (stereo not shown) [Compound 36, 5-((2-(4-((7-((3-((2,6-Dimethylphenyl)amino)-1-methyl-1H-pyrazolo[3,4-d]pyrimidin-6-yl)amino)-3,4-dihydroisoquinolin-2 (1H)-yl)methyl)piperidin-1-yl)-2-oxoethyl)amino)-2-(2,6-dioxopiperidin-3-yl)isoindoline-1,3-dione]",0.1 to 10 nM
4,"Cc1cccc(C)c1Nc1nn(C)c2nc(Nc3ccc4c(c3)CN(CC3CCN(c5ccc6c(=O)n(C7CCC(=O)NC7=O)nnc6c5)CC3)C4)ncc12 (stereo not shown) [Compound 74, 3-(7-(4-((5-((3-((2,6-Dimethylphenyl)amino)-1-methyl-1H-pyrazolo[3,4-d]pyrimidin-6-yl)amino)isoindolin-2-yl)methyl)piperidin-1-yl)-4-oxobenzo[d][1,2,3]triazin-3 (4H)-yl)piperidin-2,6-one]",10 to 1000 nM
5,"COCCOc1cc(C)c(Nc2nn(C)c3nc(Nc4ccc5c(c4)CN(CC4CCN(c6ccc7c(c6)C(=O)N(C6CCC(=O)NC6=O)C7=O)CC4)CC5)ncc23)c(C)c1 (stereo not shown) [Compound 76, 2-(2,6-Dioxopiperidin-3-yl)-5-(4-((7-((3-((4-(2-methoxyethoxy)-2,6-dimethylphenyl)amino)-1-methyl-1H-pyrazolo[3,4-d]pyrimidin-6-yl)amino)-3,4-dihydroisoquinolin-2 (1H)-yl)methyl)piperidin-1-yl)isoindoline-1,3-dione]",10 to 1000 nM
6,"Cc1cccc(C)c1Nc1nn(C)c2nc(Nc3ccc4c(c3)CN(C3CN(C[C@@H]5[C@H]6CN(c7ccc8c(c7)C(=O)N(C7CCC(=O)NC7=O)C8=O)C[C@@H]56)C3)CC4)ncc12 (stereo partly drawn) [Compound 153, 5-((1R,5S,6S)-6-((3-(7-((3-((2,6-Dimethylphenyl)amino)-1-methyl-1H-pyrazolo[3,4-d]pyrimidin-6-yl)amino)-3,4-dihydroisoquinolin-2 (1H)-yl)azetidin-1-yl)methyl)-3-azabicyclo[3.1.0]hexan-3-yl)-2-(2,6-dioxopiperidin-3-yl)isoindoline-1,3-dione]",0.1 to 10 nM
7,"Cc1cccc(C)c1Nc1nn(C)c2nc(Nc3ccc4c(c3)CN(C(=O)CC3CCN(c5ccc6c(c5)C(=O)N(C5CCC(=O)NC5=O)C6=O)CC3)CC4)ncc12 (stereo not shown) [Compound 125, 5-(4-(2-(7-((3-((2,6-Dimethylphenyl)amino)-1-methyl-1H-pyrazolo[3,4-d]pyrimidin-6-yl)amino)-3,4-dihydroisoquinolin-2 (1H)-yl)-2-oxoethyl)piperidin-1-yl)-2-(2,6-dioxopiperidin-3-yl)isoindoline-1,3-dione]",0.1 to 10 nM
8,"Cc1cccc(C)c1Nc1nn(C)c2nc(Nc3ccc4c(c3)CN(CCC3(O)CCN(c5ccc6c(c5)C(=O)N(C5CCC(=O)NC5=O)C6=O)CC3)CC4)ncc12 (stereo not shown) [Compound 131, 5-(4-(2-(7-((3-((2,6-Dimethylphenyl)amino)-1-methyl-1H-pyrazolo[3,4-d]pyrimidin-6-yl)amino)-3,4-dihydroisoquinolin-2 (1H)-yl)ethyl)-4-hydroxypiperidin-1-yl)-2-(2,6-dioxopiperidin-3-yl)isoindoline-1,3-dione]",0.1 to 10 nM
9,"Cc1cccc(C)c1Nc1nn(C)c2nc(Nc3ccc4c(c3)CN(C(=O)C3CCN(C(=O)COc5ccc6c(c5)C(=O)N(C5CCC(=O)NC5=O)C6=O)CC3)CC4)ncc12 (stereo not shown) [Compound 43, 5-(2-(4-(7-((3-((2,6-Dimethylphenyl)amino)-1-methyl-1H-pyrazolo[3,4-d]pyrimidin-6-yl)amino)-1,2,3,4-tetrahydroisoquinoline-2-carbonyl)piperidin-1-yl)-2-oxoethoxy)-2-(2,6-dioxopiperidin-3-yl)isoindoline-1,3-dione]",0.1 to 10 nM
10,"Cc1cccc(C)c1Nc1nn(C)c2nc(Nc3ccc(F)c(C4=CCN(C(=O)C5CN(c6ccc7c(c6)C(=O)N(C6CCC(=O)NC6=O)C7=O)C5)CC4)c3)ncc12 (stereo not shown) [Compound 263, 5-(3-(4-(5-((3-((2,6-Dimethylphenyl)amino)-1-methyl-1H-pyrazolo[3,4-d]pyrimidin-6-yl)amino)-2-fluorophenyl)-1,2,3,6-tetrahydropyridine-1-carbonyl)azetidin-1-yl)-2-(2,6-dioxopiperidin-3-yl)isoindoline-1,3-dione]",0.1 to 10 nM
11,"Cc1cccc(C)c1Nc1nn(C)c2nc(Nc3ccc4c(c3)CN(C(=O)/C(C#N)=C/C3CCN(C(=O)C5CCN(c6ccc7c(c6)C(=O)N(C6CCC(=O)NC6=O)C7=O)CC5)CC3)CC4)ncc12 (stereo not shown) [Compound 240, (E)-2-(7-((3-((2,6-Dimethylphenyl)amino)-1-methyl-1H-pyrazolo[3,4-d]pyrimidin-6-yl)amino)-1,2,3,4-tetrahydroisoquinoline-2-carbonyl)-3-(1-(1-(2-(2,6-dioxopiperidin-3-yl)-1,3-dioxoisoindolin-5-yl)piperidine-4-carbonyl)piperidin-4-yl)acrylonitrile]",0.1 to 10 nM
12,"Cc1cccc(C)c1Nc1nn(C)c2nc(Nc3ccc(C4CN(CC5CN(c6ccc7c(c6)C(=O)N(C6CCC(=O)NC6=O)C7=O)C5)C4)cc3)ncc12 (stereo not shown) [Compound 182, 5-(3-((3-(4-((3-((2,6-Dimethylphenyl)amino)-1-methyl-1H-pyrazolo[3,4-d]pyrimidin-6-yl)amino)phenyl)azetidin-1-yl)methyl)azetidin-1-yl)-2-(2,6-dioxopiperidin-3-yl)isoindoline-1,3-dione]",0.1 to 10 nM

# More lines, now with the values ahead:
row,DC50,Compound
1,10 to 1000 nM,"Cc1cccc(C)c1Nc1nn(C)c2nc(Nc3ccc(N4CCN(CC5CCN(c6ccc7c(c6)C(=O)N(C6CCC(=O)NC6=O)C7=O)CC5)CC4)cn3)ncc12 (stereo not shown) [Compound 162, 5-(4-((4-(6-((3-((2,6-Dimethylphenyl)amino)-1-methyl-1H-pyrazolo[3,4-d]pyrimidin-6-yl)amino)pyridin-3-yl)piperazin-1-yl)methyl)piperidin-1-yl)-2-(2,6-dioxopiperidin-3-yl)isoindoline-1,3-dione]"
2,0.1 to 10 nM,"Cc1cccc(C)c1Nc1nn(C)c2nc(Nc3ccc(C4CCN(CC5CN(c6ccc7c(c6)C(=O)N(C6CCC(=O)NC6=O)C7=O)C5)CC4)cc3)ncc12 (stereo not shown) [Compound 169, 5-(3-((4-(4-((3-((2,6-Dimethylphenyl)amino)-1-methyl-1H-pyrazolo[3,4-d]pyrimidin-6-yl)amino)phenyl)piperidin-1-yl)methyl)azetidin-1-yl)-2-(2,6-dioxopiperidin-3-yl)isoindoline-1,3-dione]"
3,0.1 to 10 nM,"Cc1cccc(C)c1Nc1nn(C)c2nc(Nc3ccc(N4CCN(C[C@H]5CCCN(c6ccc7c(c6)C(=O)N(C6CCC(=O)NC6=O)C7=O)C5)CC4)nc3)ncc12 (stereo partly drawn) [Compound 160, 5-((R)-3-((4-(5-((3-((2,6-Dimethylphenyl)amino)-1-methyl-1H-pyrazolo[3,4-d]pyrimidin-6-yl)amino)pyridin-2-yl)piperazin-1-yl)methyl)piperidin-1-yl)-2-(2,6-dioxopiperidin-3-yl)isoindoline-1,3-dione]"
4,0.1 to 10 nM,"Cc1cccc(C)c1Nc1nn(C)c2nc(Nc3cccc(N4CCN(CC5CCN(c6ccc7c(c6)C(=O)N(C6CCC(=O)NC6=O)C7=O)CC5)CC4)c3)ncc12 (stereo not shown) [Compound 136, 5-(4-((4-(3-((3-((2,6-dimethylphenyl)amino)-1-methyl-1H-pyrazolo[3,4-d]pyrimidin-6-yl)amino)phenyl)piperazin-1-yl)methyl)piperidin-1-yl)-2-(2,6-dioxopiperidin-3-yl)isoindoline-1,3-dione]"
5,10 to 1000 nM,"Cc1cccc(C)c1Nc1nn(C)c2nc(Nc3ccc4c(c3)CN(CC3CCN(CC(=O)Nc5ccc6c(c5)C(=O)N(C5CCC(=O)NC5=O)C6=O)CC3)CC4)ncc12 (stereo not shown) [Compound 90, 2-(4-((7-((3-((2,6-Dimethylphenyl)amino)-1-methyl-1H-pyrazolo[3,4-d]pyrimidin-6-yl)amino)-3,4-dihydroisoquinolin-2 (1H)-yl)methyl)piperidin-1-yl)-N-(2-(2,6-dioxopiperidin-3-yl)-1,3-dioxoisoindolin-5-yl)acetamide]"
6,0.1 to 10 nM,"Cc1cccc(C)c1Nc1nn(C)c2nc(Nc3ccc(N4CCN(CCC5CCN(c6ccc7c(c6)C(=O)N(C6CCC(=O)NC6=O)C7=O)CC5)CC4)nc3)ncc12 (stereo not shown) [Compound 157, 5-(4-(2-(4-(5-((3-((2,6-dimethylphenyl)amino)-1-methyl-1H-pyrazolo[3,4-d]pyrimidin-6-yl)amino)pyridin-2-yl)piperazin-1-yl)ethyl)piperidin-1-yl)-2-(2,6-dioxopiperidin-3-yl)isoindoline-1,3-dione]"
7,0.1 to 10 nM,"Cc1cccc(C)c1Nc1nn(C)c2nc(Nc3ccc4c(c3)CN(C(=O)CC3(O)CCN(c5ccc6c(c5)C(=O)N(C5CCC(=O)NC5=O)C6=O)CC3)CC4)ncc12 (stereo not shown) [Compound 129, 5-(4-(2-(7-((3-((2,6-dimethylphenyl)amino)-1-methyl-1H-pyrazolo[3,4-d]pyrimidin-6-yl)amino)-3,4-dihydroisoquinolin-2 (1H)-yl)-2-oxoethyl)-4-hydroxypiperidin-1-yl)-2-(2,6-dioxopiperidin-3-yl)isoindoline-1,3-dione]"
